Measured values: the supplement of paper PMC8671470
± gives the standard deviation of the averaged measurements.

Experiments:
Conditions in all cases: 72 h
K-562 [1] = tested on: K-562
Method in brief: (§1)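 Fifteen myeloid leukaemia lines were incubated for 72 h at 37 °C with 5% CO2 across five tenfold doses from 1 to 10,000 nM, in duplicate. ATP luminescence was normalised to vehicle and to a positive control at 10 µM and fitted with a four-parameter log-logistic model. The IC50 came from these dose–response fits.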

KU-812 [2] = tested on: KU-812
Method in brief: as §1

MV4-11 [3] = tested on: MV4-11
Method in brief: as §1

Mono-Mac-6 [4] = tested on: Mono-Mac-6
Method in brief: as §1

NOMO-1 [5] = tested on: NOMO-1
Method in brief: as §1

HL-60 [6] = assay: cell viability (% survival relative to DMSO control); higher = less cytotoxic
Method in brief: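 HL-60 cells in RPMI 1640 with 10% FBS were rescreened against the full library on 384-well plates at five tenfold concentrations, 1–10,000 nM, in duplicate. Each screen was run with DMSO or 100 nM of one of three metabolic inhibitors, for 72 h at 37 °C, 5% CO2. Viability was read by CellTiter-Glo and normalised to DMSO and 10 μM proteasome-inhibitor wells. Where given, area under the curve came from four-parameter log-logistic fits (drc, PharmacoGx).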

BV-173 = assay: cell viability (% survival relative to DMSO control, bortezomib = 0%); higher = less cytotoxic
Method in brief: (§2)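 Percent survival figures are means of duplicate wells. They were obtained by CellTiter-Glo luminescence after 10 AML and 5 CML cell lines spent 72 h at 37 °C with 5% CO2 in 384-well plates with compounds at 1, 10, 100, 1000 or 10000 nM. Vehicle was set to 100% and a 10 µM positive control to 0%.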

HEL = assay: as above
Method in brief: as §2

HL-60 [7] = assay: as above
Method in brief: as §2

K-562 [8] = assay: as above
Method in brief: as §2

KCL-22 = assay: as above
Method in brief: as §2

KG-1 = assay: as above
Method in brief: as §2

KU-812 [9] = assay: as above
Method in brief: as §2

LAMA-84 = assay: as above
Method in brief: as §2

ML-2 = assay: as above
Method in brief: as §2

MOLM-13 = assay: as above
Method in brief: as §2

MV4-11 [10] = assay: as above
Method in brief: as §2

Mono-Mac-6 [11] = assay: as above
Method in brief: as §2

NOMO-1 [12] = assay: as above
Method in brief: as §2

SHI-1 = assay: as above
Method in brief: as §2

THP-1 = assay: as above
Method in brief: as §2

C=C(C)[C@H]1Cc2c(ccc3c2O[C@@H]2COc4cc(OC)c(OC)cc4[C@@H]2C3=O)O1 [Rotenone]
Conditions	IC50 (cell viability) [µM]
K-562 [1]	0.0407
KU-812 [2]	0.0232
MV4-11 [3]	0.156
Mono-Mac-6 [4]	0.225
NOMO-1 [5]	0.644

cell viability [%], HL-60 [6]
Conditions	0.001 µM	0.01 µM	0.1 µM	1 µM	10 µM
co-treatment: AZD3965 100 nM	96.5 ± 2.8	99.7 ± 16	83 ± 2.4	83.4 ± 4.6	7.8 ± 1.9
co-treatment: DMSO vehicle	97.7 ± 17	103 ± 5.4	86.415 ± 0.053	30.8 ± 1.9	10.4 ± 4
co-treatment: GSK2194069 100 nM	86.2 ± 18	91.1 ± 11	78.3 ± 0.99	35.8 ± 0.99	12.9 ± 0.53
co-treatment: pictilisib 100 nM	83.6 ± 6.6	74.5 ± 32	83.9 ± 5.1	34.5 ± 0.37	9.82 ± 1.3

cell viability [%]
Conditions	1 nM	10 nM	100 nM	1000 nM	10000 nM
BV-173	106	77	49.9	1.45	0.515
HEL	99.4	92	63.2	12.3	1.89
HL-60 [7]	97.1	79.3	82.1	0.525	3.28
K-562 [8]	88.9	66.4	30.6	3.39	2.57
KCL-22	97.8	103	81.7	0.654	1.21
KG-1	93.6	83.7	43.7	11.5	11.6
KU-812 [9]	87.9	65.9	16.6	3.5	2.89
LAMA-84	101	87.5	51.4	18.3	14.6
ML-2	94.4	94.1	97.1	1.51	3.18
MOLM-13	103	77.8	67.2	2.3	0.733
MV4-11 [10]	97.2	70	58.4	0.45	0.258
Mono-Mac-6 [11]	94.1	96.4	76.7	9.03	2.24
NOMO-1 [12]	93.9	109	92	39.8	8.45
SHI-1	96.3	93.4	73.7	4.23	5.24
THP-1	98.9	104	76.2	37.6	24.5

CCN(CC)CCCC(C)Nc1ccnc2cc(Cl)ccc12 (stereo not given) [Chloroquine]
Conditions	IC50 (cell viability) [µM]
K-562 [1]	> 10
KU-812 [2]	> 10
MV4-11 [3]	> 10
Mono-Mac-6 [4]	> 10
NOMO-1 [5]	> 10

cell viability [%], HL-60 [6]
Conditions	0.001 µM	0.01 µM	0.1 µM	1 µM	10 µM
co-treatment: AZD3965 100 nM	102 ± 1.2	87.5 ± 17	107.4 ± 0.11	104 ± 5.8	97.5 ± 7.8
co-treatment: DMSO vehicle	104 ± 3.9	91.3 ± 17	102.4 ± 0.66	106 ± 4.4	99.7 ± 1.6
co-treatment: GSK2194069 100 nM	102.2 ± 0.76	77.2 ± 30	98.3 ± 1.5	102 ± 5.2	89.7 ± 6.5
co-treatment: pictilisib 100 nM	96.1 ± 2.8	67.7 ± 45	104 ± 2.7	103.8 ± 0.31	100 ± 22

cell viability [%]
Conditions	1 nM	10 nM	100 nM	1000 nM	10000 nM
BV-173	111	89.5	111	97.1	85.2
HEL	95.4	94.5	89.6	97.6	104
HL-60 [7]	101	79.8	97.1	101	76.4
K-562 [8]	101	111	105	103	86.3
KCL-22	95.6	106	100	95.7	102
KG-1	112	101	89.7	102	88.1
KU-812 [9]	109	97.8	102	98.1	96.9
LAMA-84	105	101	101	101	99.1
ML-2	108	98.7	97	100	94
MOLM-13	103	81.8	112	107	101
MV4-11 [10]	108	93.7	105	104	90.5
Mono-Mac-6 [11]	105	94.9	104	93.4	92.1
NOMO-1 [12]	110	99.3	97.9	96.2	93.7
SHI-1	108	106	96.6	89.8	92
THP-1	108	101	101	98.7	98.5

O=C(O)C1=CC(=C(c2ccc(O)c(C(=O)O)c2)c2ccc(O)c(C(=O)O)c2)C=CC1=O [Aurintricarboxylic acid]
Conditions	IC50 (cell viability) [µM]
K-562 [1]	> 10
KU-812 [2]	> 10
MV4-11 [3]	> 10
Mono-Mac-6 [4]	> 10
NOMO-1 [5]	> 10

cell viability [%], HL-60 [6]
Conditions	0.001 µM	0.01 µM	0.1 µM	1 µM	10 µM
co-treatment: AZD3965 100 nM	95.9 ± 1.1	101 ± 7	101 ± 8.6	94.5 ± 6.3	98.9 ± 3.7
co-treatment: DMSO vehicle	101 ± 3.1	81.6 ± 29	106 ± 5.5	104 ± 6.9	97.6 ± 3.1
co-treatment: GSK2194069 100 nM	94.1 ± 0.2	82.3 ± 19	98.7 ± 6.2	98.3 ± 11	82.5 ± 11
co-treatment: pictilisib 100 nM	99.3 ± 2.4	99.3 ± 8.4	96.2 ± 11	101 ± 17	103 ± 9.1

cell viability [%]
Conditions	1 nM	10 nM	100 nM	1000 nM	10000 nM
BV-173	114	104	107	88.3	9.49
HEL	108	85.9	115	92.5	21.8
HL-60 [7]	103	87.8	103	91.1	111
K-562 [8]	88.9	104	82	101	128
KCL-22	131	94.8	92	116	119
KG-1	104	94.5	99.9	89.6	78.9
KU-812 [9]	98	102	106	96	102
LAMA-84	105	102	100	89	106
ML-2	107	97.7	97.5	96.4	92.9
MOLM-13	91.3	101	107	82.8	30.9
MV4-11 [10]	103	100	86.3	97	71.9
Mono-Mac-6 [11]	98.6	98.6	104	105	89.7
NOMO-1 [12]	95.8	108	109	90.1	80.9
SHI-1	104	91.8	99	100	114
THP-1	105	101	109	97.5	99.4
